Assay results from ChEMBL document CHEMBL5291721, “A preclinical secondary pharmacology resource illuminates target-adverse drug reaction associations of marketed drugs” (Nat Commun, 2023).

Legend:
[1] = biological target: T1, Androgen receptor (Rattus norvegicus, UniProt P15207); type: functional
T1 sequence (P15207 whole entry): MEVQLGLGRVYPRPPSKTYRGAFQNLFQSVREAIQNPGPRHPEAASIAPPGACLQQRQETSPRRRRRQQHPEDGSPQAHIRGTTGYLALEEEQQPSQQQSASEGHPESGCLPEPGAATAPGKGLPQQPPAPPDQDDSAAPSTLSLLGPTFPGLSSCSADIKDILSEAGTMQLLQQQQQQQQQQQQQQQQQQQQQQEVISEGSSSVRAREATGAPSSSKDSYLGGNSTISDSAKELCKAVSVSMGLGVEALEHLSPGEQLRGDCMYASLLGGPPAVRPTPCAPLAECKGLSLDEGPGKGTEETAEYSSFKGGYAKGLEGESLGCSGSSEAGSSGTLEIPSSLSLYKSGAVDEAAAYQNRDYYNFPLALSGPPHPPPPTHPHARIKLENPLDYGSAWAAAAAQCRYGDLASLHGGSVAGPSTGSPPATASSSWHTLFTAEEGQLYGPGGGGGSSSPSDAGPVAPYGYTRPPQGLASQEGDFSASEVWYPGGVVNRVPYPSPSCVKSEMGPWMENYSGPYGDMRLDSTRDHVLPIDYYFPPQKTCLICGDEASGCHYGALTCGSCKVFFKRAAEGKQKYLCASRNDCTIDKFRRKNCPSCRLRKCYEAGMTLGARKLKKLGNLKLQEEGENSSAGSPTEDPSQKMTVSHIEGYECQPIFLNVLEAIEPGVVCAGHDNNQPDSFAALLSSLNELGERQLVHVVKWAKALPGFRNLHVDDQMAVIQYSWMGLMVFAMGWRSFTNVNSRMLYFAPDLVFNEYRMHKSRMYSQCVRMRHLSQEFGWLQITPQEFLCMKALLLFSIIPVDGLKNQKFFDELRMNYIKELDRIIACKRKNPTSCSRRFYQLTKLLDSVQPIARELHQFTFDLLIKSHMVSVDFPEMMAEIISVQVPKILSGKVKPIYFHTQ

[2] = biological target: Muscarinic acetylcholine receptor M3 (Homo sapiens, UniProt P20309)
[3] = biological target: 5-hydroxytryptamine receptor 2A (Homo sapiens, UniProt P28223); type: functional, cell-based
[4] = biological target: T2, Alpha-2B adrenergic receptor (Homo sapiens, UniProt P18089)
T2 sequence (P18089 whole entry): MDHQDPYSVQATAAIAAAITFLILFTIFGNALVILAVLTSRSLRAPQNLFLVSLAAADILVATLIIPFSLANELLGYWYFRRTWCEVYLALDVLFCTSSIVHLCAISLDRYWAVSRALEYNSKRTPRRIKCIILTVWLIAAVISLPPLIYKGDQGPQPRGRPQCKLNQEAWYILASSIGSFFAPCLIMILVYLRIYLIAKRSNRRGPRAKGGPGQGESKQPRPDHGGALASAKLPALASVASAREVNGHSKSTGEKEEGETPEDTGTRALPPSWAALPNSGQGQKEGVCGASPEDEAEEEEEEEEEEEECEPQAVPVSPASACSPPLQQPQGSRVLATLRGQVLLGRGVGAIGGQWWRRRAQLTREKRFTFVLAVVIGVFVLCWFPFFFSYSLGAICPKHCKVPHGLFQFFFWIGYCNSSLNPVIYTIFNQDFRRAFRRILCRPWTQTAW

[5] = biological target: T3, Estrogen receptor (Homo sapiens, UniProt P03372)
T3 sequence (P03372 whole entry): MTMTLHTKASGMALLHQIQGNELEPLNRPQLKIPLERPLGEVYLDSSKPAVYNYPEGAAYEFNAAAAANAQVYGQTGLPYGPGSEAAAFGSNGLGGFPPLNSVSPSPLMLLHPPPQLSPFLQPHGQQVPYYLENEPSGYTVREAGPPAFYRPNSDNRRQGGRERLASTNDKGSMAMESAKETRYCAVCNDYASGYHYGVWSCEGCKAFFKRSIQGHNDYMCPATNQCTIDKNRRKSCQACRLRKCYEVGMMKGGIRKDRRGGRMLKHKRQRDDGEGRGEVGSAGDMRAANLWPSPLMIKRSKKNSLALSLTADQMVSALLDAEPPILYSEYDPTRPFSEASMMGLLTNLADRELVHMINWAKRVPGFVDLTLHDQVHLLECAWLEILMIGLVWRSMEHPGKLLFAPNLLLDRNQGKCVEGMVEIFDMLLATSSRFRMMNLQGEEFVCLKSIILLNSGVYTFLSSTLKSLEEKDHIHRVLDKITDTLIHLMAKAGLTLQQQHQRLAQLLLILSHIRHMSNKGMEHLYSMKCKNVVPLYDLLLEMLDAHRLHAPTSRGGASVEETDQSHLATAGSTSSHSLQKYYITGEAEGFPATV

[6] = biological target: Cannabinoid receptor 1 (Homo sapiens, UniProt P21554)
[7] = biological target: T4, Corticotropin-releasing factor receptor 2 (Homo sapiens, UniProt Q13324)
T4 sequence (Q13324 whole entry): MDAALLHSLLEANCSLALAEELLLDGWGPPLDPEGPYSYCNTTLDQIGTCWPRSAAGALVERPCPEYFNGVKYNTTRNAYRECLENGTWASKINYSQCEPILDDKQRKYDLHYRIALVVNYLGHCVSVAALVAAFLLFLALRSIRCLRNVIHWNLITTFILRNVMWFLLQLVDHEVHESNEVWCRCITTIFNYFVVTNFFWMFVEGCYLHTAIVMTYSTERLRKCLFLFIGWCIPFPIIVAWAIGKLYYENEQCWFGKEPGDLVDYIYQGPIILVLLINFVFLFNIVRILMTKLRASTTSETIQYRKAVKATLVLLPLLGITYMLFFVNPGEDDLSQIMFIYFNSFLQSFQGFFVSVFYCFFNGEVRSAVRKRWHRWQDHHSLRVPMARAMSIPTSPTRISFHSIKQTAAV

[8] = biological target: Neurotensin receptor type 1 (Homo sapiens, UniProt P30989)
[9] = biological target: T5, Neuropeptide Y receptor type 2 (Homo sapiens, UniProt P49146)
T5 sequence (P49146 whole entry): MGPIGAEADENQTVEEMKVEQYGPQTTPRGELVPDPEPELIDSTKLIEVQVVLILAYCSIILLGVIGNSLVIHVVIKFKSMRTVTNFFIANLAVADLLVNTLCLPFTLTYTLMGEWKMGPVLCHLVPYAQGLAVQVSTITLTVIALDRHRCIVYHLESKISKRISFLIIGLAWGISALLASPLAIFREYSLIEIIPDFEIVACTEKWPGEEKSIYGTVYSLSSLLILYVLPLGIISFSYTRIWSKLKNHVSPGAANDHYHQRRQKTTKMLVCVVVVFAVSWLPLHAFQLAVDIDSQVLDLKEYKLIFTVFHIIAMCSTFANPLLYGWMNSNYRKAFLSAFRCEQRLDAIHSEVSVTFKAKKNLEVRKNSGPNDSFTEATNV
Note: assay procedure not described here.

Chain of Neurotensin receptor type 1 (P30989 whole entry): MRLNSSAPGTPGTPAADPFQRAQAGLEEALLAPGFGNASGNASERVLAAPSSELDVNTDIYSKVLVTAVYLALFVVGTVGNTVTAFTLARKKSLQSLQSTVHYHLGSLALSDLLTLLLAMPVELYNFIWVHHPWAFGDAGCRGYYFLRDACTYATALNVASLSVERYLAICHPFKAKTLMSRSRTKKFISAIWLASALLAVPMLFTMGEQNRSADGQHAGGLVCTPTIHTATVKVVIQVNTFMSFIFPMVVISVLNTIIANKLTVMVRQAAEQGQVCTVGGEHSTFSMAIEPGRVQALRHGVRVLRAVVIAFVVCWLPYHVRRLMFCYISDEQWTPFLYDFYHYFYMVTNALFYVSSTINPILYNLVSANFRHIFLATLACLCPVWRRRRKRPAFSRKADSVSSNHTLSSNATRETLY
Chain of Muscarinic acetylcholine receptor M3 (P20309 whole entry): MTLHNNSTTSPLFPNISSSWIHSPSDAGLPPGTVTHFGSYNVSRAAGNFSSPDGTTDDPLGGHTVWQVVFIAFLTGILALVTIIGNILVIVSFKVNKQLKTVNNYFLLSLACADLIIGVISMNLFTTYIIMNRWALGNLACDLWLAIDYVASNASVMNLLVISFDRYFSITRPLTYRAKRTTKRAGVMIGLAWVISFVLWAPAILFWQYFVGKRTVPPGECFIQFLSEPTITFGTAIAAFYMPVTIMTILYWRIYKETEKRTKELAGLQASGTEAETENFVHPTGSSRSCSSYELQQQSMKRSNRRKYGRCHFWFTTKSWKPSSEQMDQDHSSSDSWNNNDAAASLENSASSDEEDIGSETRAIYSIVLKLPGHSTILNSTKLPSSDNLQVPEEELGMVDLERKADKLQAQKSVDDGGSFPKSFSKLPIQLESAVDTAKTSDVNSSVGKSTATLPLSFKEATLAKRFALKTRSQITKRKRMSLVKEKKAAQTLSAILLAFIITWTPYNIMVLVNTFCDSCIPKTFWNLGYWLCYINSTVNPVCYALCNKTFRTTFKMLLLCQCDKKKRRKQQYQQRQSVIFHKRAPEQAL
Chain of Cannabinoid receptor 1 (P21554 whole entry): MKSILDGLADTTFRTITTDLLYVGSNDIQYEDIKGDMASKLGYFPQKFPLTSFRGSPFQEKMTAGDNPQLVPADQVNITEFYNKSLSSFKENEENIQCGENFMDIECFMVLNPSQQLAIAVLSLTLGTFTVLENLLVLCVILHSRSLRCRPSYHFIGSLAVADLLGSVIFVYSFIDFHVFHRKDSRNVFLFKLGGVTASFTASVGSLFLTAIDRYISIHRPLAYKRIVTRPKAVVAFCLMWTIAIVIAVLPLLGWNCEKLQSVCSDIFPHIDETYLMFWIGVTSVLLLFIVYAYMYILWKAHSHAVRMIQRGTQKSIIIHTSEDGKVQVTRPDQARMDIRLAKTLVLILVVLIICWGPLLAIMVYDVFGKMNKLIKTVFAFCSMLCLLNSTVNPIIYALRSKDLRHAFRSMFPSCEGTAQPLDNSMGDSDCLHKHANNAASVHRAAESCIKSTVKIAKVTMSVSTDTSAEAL
Chain of 5-hydroxytryptamine receptor 2A (P28223 whole entry): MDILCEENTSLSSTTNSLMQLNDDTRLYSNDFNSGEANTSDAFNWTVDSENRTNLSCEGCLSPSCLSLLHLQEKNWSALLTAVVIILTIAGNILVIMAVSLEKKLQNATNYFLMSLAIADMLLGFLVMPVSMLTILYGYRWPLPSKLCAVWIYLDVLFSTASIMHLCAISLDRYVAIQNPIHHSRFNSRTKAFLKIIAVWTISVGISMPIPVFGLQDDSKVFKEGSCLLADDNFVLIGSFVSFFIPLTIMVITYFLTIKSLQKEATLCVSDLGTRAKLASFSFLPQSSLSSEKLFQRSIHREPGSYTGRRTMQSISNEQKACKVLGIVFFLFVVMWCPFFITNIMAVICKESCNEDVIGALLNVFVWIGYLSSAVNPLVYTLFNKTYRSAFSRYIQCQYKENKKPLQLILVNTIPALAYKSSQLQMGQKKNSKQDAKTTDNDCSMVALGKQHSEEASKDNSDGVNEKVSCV

| Structure (SMILES) | AC50 [1] [µM] | AC50 [2] [µM] | AC50 [3] [µM] | AC50 [4] [µM] | AC50 [5] [µM] | AC50 [6] [µM] | AC50 [7] [µM] | AC50 [8] [µM] | AC50 [9] [µM] |
| --- | --- | --- | --- | --- | --- | --- | --- | --- | --- |
| CCCN(CCc1cccs1)[C@H]1CCc2c(O)cccc2C1 [ROTIGOTINE] | > 30 | > 30 | 0.46 | 0.13 | – | – | – | – | – |
| CCc1oc2ccccc2c1C(=O)c1cc(Br)c(O)c(Br)c1 [BENZBROMARONE] | > 30 | – | – | – | > 30 | > 10 | – | – | – |
| Clc1cccc(Cl)c1N=C1NCCN1 [CLONIDINE] | – | – | – | – | – | > 10 | > 30 | > 30 | > 30 |
| NC(=O)c1ncn([C@@H]2O[C@H](CO)[C@@H](O)[C@H]2O)n1 [RIBAVIRIN] | – | – | – | – | – | > 10 | – | – | – |
| CC[C@@H](CO)NC(=O)[C@@H]1C=C2c3cccc4[nH]cc(c34)C[C@H]2N(C)C1 [METHYLERGONOVINE] | 18 | – | – | – | > 30 | – | – | – | – |
| CC(C)N(CCCCOCC(=O)NS(C)(=O)=O)c1cnc(-c2ccccc2)c(-c2ccccc2)n1 [SELEXIPAG] | > 30 | > 30 | > 30 | > 30 | > 30 | – | – | – | – |
| [H]/N=C(\N/C(=N/[H])NCCCCCCNC(=N)NC(=N)Nc1ccc(Cl)cc1)Nc1ccc(Cl)cc1 [CHLORHEXIDINE] | – | 7.8 | > 10 | 2.4 | > 30 | 3.07 | – | – | – |
| CNCCC=C1c2ccccc2CCc2ccccc21 [NORTRIPTYLINE] | – | – | – | – | > 30 | – | – | – | – |
| Cc1cnc(NC(=O)C2=C(O)c3ccccc3S(=O)(=O)N2C)s1 [MELOXICAM] | – | – | – | – | > 30 | > 10 | > 30 | > 30 | > 30 |
| CN(C)c1cc(CNCC(C)(C)C)c(O)c2c1C[C@H]1C[C@H]3[C@H](N(C)C)C(O)=C(C(N)=O)C(=O)[C@@]3(O)C(O)=C1C2=O [OMADACYCLINE] | > 30 | > 30 | > 30 | 30 | > 30 | – | – | – | – |
| O=C1CN2Cc3c(ccc(Cl)c3Cl)N=C2N1 [ANAGRELIDE] | – | > 10 | > 30 | > 10 | > 30 | > 10 | – | – | – |
| CNC(=O)c1cc(Oc2ccc(NC(=O)Nc3ccc(Cl)c(C(F)(F)F)c3)c(F)c2)ccn1 [REGORAFENIB] | > 30 | – | > 30 | – | – | – | – | – | – |
| Nc1nc(O)c2ncn(COC(CO)CO)c2n1 [GANCICLOVIR] | – | – | – | – | > 30 | – | – | – | – |
| C=C(C)[C@@H]1CCC(C)=C[C@H]1c1c(O)cc(CCCCC)cc1O [CANNABIDIOL] | > 30 | > 30 | > 30 | > 30 | – | – | – | – | – |
| Cc1cc(CC(=O)O)n(C)c1C(=O)c1ccc(Cl)cc1 [ZOMEPIRAC] | – | > 30 | > 30 | > 30 | – | – | – | – | – |
| CNCC[C@H](Oc1cccc2ccccc12)c1cccs1 [DULOXETINE] | – | > 30 | – | 3.9 | – | > 10 | – | – | – |

| Structure (SMILES) | AC50 [1] [µM] | AC50 [2] [µM] | AC50 [3] [µM] | AC50 [4] [µM] | AC50 [5] [µM] | AC50 [6] [µM] | AC50 [7] [µM] | AC50 [8] [µM] | AC50 [9] [µM] |
| --- | --- | --- | --- | --- | --- | --- | --- | --- | --- |
| CN1CCN(CCCN2c3ccccc3Sc3ccc(S(=O)(=O)N(C)C)cc32)CC1 [THIOPROPERAZINE] | – | 18 | > 30 | 0.15 | – | – | – | – | – |
| CC(=N)N1CC[C@H](SC2=C(C(=O)O)N3C(=O)[C@H]([C@@H](C)O)[C@H]3C2)C1 | > 300 | 290 | > 300 | 300 | – | – | – | – | – |
| CCC(=O)O[C@@H](O[P@](=O)(CCCCc1ccccc1)CC(=O)N1C[C@H](C2CCCCC2)C[C@H]1C(=O)O)C(C)C [FOSINOPRIL] | – | > 30 | > 30 | > 30 | – | – | – | – | – |
| CC(=O)Oc1ccccc1C(=O)Nc1ncc([N+](=O)[O-])s1 [NITAZOXANIDE] | – | 13 | > 30 | 8 | > 30 | – | – | – | – |
| CCOc1cc(CC(=O)N[C@@H](CC(C)C)c2ccccc2N2CCCCC2)ccc1C(=O)O [REPAGLINIDE] | > 30 | > 30 | > 30 | > 30 | – | – | – | – | – |
| CNCC[C@@H](Oc1ccccc1C)c1ccccc1 [ATOMOXETINE] | > 30 | > 30 | – | 23 | > 30 | – | – | – | – |
| Cn1c(=O)c2[nH]cnc2n(C)c1=O [THEOPHYLLINE] | – | – | – | – | – | > 10 | > 30 | > 30 | > 30 |
| O=C1NC(=O)C(c2ccccc2)(c2ccccc2)N1 [PHENYTOIN] | – | – | – | – | – | > 10 | > 30 | > 30 | > 30 |
| CC(/C=C1\SC(=S)N(CC(=O)O)C1=O)=C\c1ccccc1 | – | – | – | – | > 30 | – | – | – | – |
| CO/N=C(\C(=O)N[C@@H]1C(=O)N2C(C(=O)O)=C(COC(N)=O)CS[C@H]12)c1ccco1 [CEFUROXIME] | – | > 30 | > 30 | > 30 | – | – | – | – | – |
| COc1ccc(Cc2nccc3cc(OC)c(OC)cc23)cc1OC [PAPAVERINE] | > 30 | – | – | – | – | – | – | – | – |
| O=C(Nc1c(Cl)cncc1Cl)c1ccc(OC(F)F)c(OCC2CC2)c1 [ROFLUMILAST] | > 30 | > 30 | > 30 | > 30 | > 30 | – | – | – | – |
| C#Cc1cccc(Nc2ncnc3cc(OCCOC)c(OCCOC)cc23)c1 [ERLOTINIB] | – | > 30 | – | > 30 | – | – | – | – | – |
| C[C@H]1Oc2cc(cnc2N)-c2c(nn(C)c2C#N)CN(C)C(=O)c2ccc(F)cc21 [LORLATINIB] | > 30 | > 30 | > 30 | > 30 | – | – | – | – | – |
| CC(=O)/N=c1/sc(S(N)(=O)=O)nn1C [METHAZOLAMIDE] | – | > 30 | > 10 | > 10 | > 10 | > 10 | – | – | – |
| CCCCNc1ccc(C(=O)OCCN(C)C)cc1 [TETRACAINE] | – | – | – | – | – | > 10 | > 30 | 9.9 | > 30 |
